Test results published in patent US9302991B2, “Arylamide derivatives as TTX-S blockers” (RaQualia Pharma Inc., priority 2010, dated 2016).

These compounds were tested against T1, human Nav1.3 channels (Homo sapiens, UniProt Q9NY46) (assay: FRET assay, human Nav1.3 (EFS on FDSS)). Details: HEK293 cells expressing human Nav1.3, read-out: IC50 against Nav1.3.
T1 construct: expressed in transfected cells; host or cells: HEK293
Type: cell-based
Method: The inhibitory activities of compounds against voltage gated sodium channels are determined by methodology well known in the art.
The ability of the aryl substituted carboxamide derivatives of the formula (I) to inhibit the NaV1.3, Nav1.7 and Nav1.5 channels is measured by Fluorescence Resonance Energy Transfer (FRET) assay and electrophysiology assay described below.
This screen is used to determine the effects of compounds on human Nav1.3, human Nav1.7, and human Nav1.5 channels, utilising electrical field stimulation (EFS) system in 96-well plate format on FDSS (Hamamatsu Photonics) platform. The change of membrane potential is monitored with FRET dye pair, oxonol (DiSBAC2(3)) and coumarin (CC2-DMPE).
Each HEK293 cells expressing human Nav1.3 channels and HEK293 cells expressing human Nav1.5 channels are grown in T225 flasks, in a 5% CO2 humidified incubator to about 80% confluence. Media composition consists of Dulbecco's Modified Eagle Medium (high glucose), 10% FCS, 100 units/mL Penicillin, 100 microgram/mL Streptomycin and 500 microgram/mL Geneticine.
Protocol: • Seed each cell lines (1×10^5 cells/well) into poly-D-lysine coated 96-well plates prior to experimentation. • Incubate at 37° C. in 5% CO2 for 24 hours. • Wash each well with assay buffer (140 mM NaCl, 4.5 mM KCl, 10 mM D-Glucose, 2 mM CaCl2, 1 mM MgCl2, 10 mM HEPES, pH 7.4 adjusted with NaOH) twice. • Add 1st loading solution containing 10 microM CC2-DMPE and 0.06% Pluronic F-127 in assay buffer. • Incubate the plate at room temperature in dark for 1 hour. • Remove 1st loading solution and added 2nd loading solution containing 15 microM DiSBAC2(3), 0.555 mM VABSC-1 and 0.004% Pluronic F-127 in assay buffer. • Place the plate under the dark at room temperature for 25 minutes. • Add compound solutions into the assay plate. • Set the assay plate in FDSS and placed an EFS device on the plate. • Measure EFS-induced fluorescent response by FDSS.
The data are analyzed and reported as normalized ratios of intensities measured at […]. The process of calculating these ratios is performed as follows:
This analysis is performed using a computerized specific program designed for FDSS generated data. Fluorescence ratio values are plotted using XLfit to determine an IC50 value for each compound.

T1 sequence (Q9NY46 whole entry): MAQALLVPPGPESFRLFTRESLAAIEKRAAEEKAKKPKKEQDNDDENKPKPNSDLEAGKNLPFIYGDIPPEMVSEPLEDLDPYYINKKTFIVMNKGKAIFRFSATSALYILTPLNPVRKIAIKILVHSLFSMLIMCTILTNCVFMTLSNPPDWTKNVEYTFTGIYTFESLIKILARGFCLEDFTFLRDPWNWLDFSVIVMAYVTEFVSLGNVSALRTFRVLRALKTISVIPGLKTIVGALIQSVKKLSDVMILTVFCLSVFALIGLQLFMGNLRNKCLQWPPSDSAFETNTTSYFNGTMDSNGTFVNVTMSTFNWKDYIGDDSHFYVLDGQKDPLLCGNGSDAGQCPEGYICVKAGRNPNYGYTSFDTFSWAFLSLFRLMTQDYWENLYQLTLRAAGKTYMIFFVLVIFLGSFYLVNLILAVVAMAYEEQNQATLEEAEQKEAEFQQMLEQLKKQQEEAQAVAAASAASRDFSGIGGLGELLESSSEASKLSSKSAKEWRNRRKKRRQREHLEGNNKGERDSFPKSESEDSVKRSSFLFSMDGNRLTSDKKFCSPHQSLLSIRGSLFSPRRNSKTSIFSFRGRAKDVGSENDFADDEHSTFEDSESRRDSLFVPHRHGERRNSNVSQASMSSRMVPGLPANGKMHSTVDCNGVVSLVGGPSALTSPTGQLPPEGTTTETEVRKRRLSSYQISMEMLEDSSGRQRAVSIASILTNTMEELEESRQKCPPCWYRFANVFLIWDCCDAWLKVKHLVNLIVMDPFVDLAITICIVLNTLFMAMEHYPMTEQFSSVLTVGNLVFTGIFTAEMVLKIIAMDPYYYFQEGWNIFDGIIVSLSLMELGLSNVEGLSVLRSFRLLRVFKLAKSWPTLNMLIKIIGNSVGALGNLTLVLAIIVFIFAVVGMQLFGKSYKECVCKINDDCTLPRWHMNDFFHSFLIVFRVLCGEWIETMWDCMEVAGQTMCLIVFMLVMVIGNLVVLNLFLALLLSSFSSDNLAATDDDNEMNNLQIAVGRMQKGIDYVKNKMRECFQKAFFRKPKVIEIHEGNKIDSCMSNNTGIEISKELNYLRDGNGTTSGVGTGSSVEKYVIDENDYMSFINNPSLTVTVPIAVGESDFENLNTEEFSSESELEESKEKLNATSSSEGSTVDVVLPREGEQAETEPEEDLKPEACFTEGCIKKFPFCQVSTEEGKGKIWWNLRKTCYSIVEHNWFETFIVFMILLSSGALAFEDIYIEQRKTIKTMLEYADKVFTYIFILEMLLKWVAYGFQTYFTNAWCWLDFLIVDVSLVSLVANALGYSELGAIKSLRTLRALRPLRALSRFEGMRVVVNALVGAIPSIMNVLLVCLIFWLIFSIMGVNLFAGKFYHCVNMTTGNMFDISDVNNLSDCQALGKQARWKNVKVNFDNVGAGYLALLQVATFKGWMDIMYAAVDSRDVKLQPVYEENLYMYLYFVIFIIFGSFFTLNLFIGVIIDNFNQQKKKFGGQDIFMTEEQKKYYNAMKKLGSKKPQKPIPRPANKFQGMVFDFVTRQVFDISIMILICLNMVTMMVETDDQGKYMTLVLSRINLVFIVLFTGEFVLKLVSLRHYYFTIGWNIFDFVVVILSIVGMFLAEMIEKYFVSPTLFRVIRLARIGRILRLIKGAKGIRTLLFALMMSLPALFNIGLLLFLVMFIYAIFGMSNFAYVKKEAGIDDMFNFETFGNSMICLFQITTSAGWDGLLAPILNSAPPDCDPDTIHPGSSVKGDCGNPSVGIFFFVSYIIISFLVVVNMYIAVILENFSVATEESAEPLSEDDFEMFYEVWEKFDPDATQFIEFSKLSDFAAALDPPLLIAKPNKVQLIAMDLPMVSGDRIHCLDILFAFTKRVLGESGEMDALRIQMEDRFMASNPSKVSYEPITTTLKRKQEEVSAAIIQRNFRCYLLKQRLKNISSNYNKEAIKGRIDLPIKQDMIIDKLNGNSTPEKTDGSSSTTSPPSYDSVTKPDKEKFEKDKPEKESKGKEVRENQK

IC50, < 1000 nM:
Cc1cc(CNC(=O)c2ccnc(NC(=O)C3CC3)c2)cc(OC(F)(F)F)c1 [Example 599, 2-(cyclopropanecarboxamido)-N-(3-methyl-5-(trifluoromethoxy)benzyl)isonicotinamide]
CC(C)C(=O)Nc1cc(C(=O)NCc2cccc(C(F)(F)F)c2F)ccn1 [Example 730, N-(2-fluoro-3-(trifluoromethyl)benzyl)-2-isobutyramidoisonicotinamide]
Cc1cc(CNC(=O)c2ccnc(NC(=O)C3CC3)n2)ccc1OCC(F)(F)F [Example 779, 2-(cyclopropanecarboxamido)-N-(3-methyl-4-(2,2,2-trifluoroethoxy)benzyl)pyrimidine-4-carboxamide]
CCC(=O)Nc1cc(C(=O)NCc2ccc(OC(F)(F)F)c(Cl)c2)ccn1 [Example 968, N-(3-chloro-4-(trifluoromethoxy)benzyl)-2-propionamidoisonicotinamide]
CCC(=O)Nc1cc(C(=O)NCc2cnc(OCC(F)F)c(C)c2)ccn1 [Example 738, N-((6-(2,2-difluoroethoxy)-5-methylpyridin-3-yl)methyl)-2-propionamidoisonicotinamide]
CC(=O)Nc1cc(C(=O)NCc2cnc(OCC(F)(F)F)c(Cl)c2)ccn1 [Example 93, 2-acetamido-N-((5-chloro-6-(2,2,2-trifluoroethoxy)pyridin-3-yl)methyl)isonicotinamide]
Cc1cc(C(=O)NCc2cnc(OCC(F)(F)F)c(Cl)c2)cc(NC(=O)CC2CC2)n1 [Example 956, N-((5-chloro-6-(2,2,2-trifluoroethoxy)pyridin-3-yl)methyl)-2-(2-cyclopropylacetamido)-6-methylisonicotinamide]
CCC(=O)Nc1cc(C(=O)NCc2cccc(OCC(F)(F)F)n2)ccn1 [Example 464, 2-propionamido-N-((6-(2,2,2-trifluoroethoxy)pyridin-2-yl)methyl)isonicotinamide]
CC(C)C(=O)Nc1cc(C(=O)NCc2ccc(OCC(F)(F)C(F)(F)F)nc2)ccn1 [Example 641, 2-isobutyramido-N-((6-(2,2,3,3,3-pentafluoropropoxy)pyridin-3-yl)methyl)isonicotinamide]
CC(C)C(=O)Nc1cc(C(=O)NCc2cccc(OCC(F)(F)F)n2)ccn1 [Example 468, 2-isobutyramido-N-((6-(2,2,2-trifluoroethoxy)pyridin-2-yl)methyl)isonicotinamide]
CCC(=O)Nc1cc(C(=O)NCc2cccc(OC(F)(F)F)c2F)cc(C)n1 [Example 749, N-(2-fluoro-3-(trifluoromethoxy)benzyl)-2-methyl-6-propionamidoisonicotinamide]
COCCNc1nc(C)cc(C(=O)NC(C)c2cnc(OCC(F)(F)F)c(C)c2)n1 (single isomer, unassigned) [Example 475, 2-((2-methoxyethyl)amino)-6-methyl-N-(1-(5-methyl-6-(2,2,2-trifluoroethoxy)pyridin-3-yl)ethyl)pyrimidine-4-carboxamide]
CC(=O)Nc1cc(C(=O)NCc2cnc(OCC(F)(F)F)c(C(F)(F)F)c2)cc(C)n1 [Example 727, 2-acetamido-6-methyl-N-((6-(2,2,2-trifluoroethoxy)-5-(trifluoromethyl)pyridin-3-yl)methyl)isonicotinamide]
O=C(NCc1cnc(OCC(F)F)c(C2CC2)c1)c1ccnc(NC(=O)C2CC2)n1 [Example 918, 2-(cyclopropanecarboxamido)-N-((5-cyclopropyl-6-(2,2-difluoroethoxy)pyridin-3-yl)methyl)pyrimidine-4-carboxamide]
CCC(=O)Nc1cc(C(=O)NCc2ccc(OCC(C)(F)F)nc2)cc(C)n1 [Example 721, N-((6-(2,2-difluoropropoxy)pyridin-3-yl)methyl)-2-methyl-6-propionamidoisonicotinamide]
Cc1cc(C(=O)NC(C)c2ccc(OCC(F)F)c(Cl)c2)nc(NC(=O)C2CC2)n1 (single isomer, unassigned) [Example 984, N-(1-(3-chloro-4-(2,2-difluoroethoxy)phenyl)ethyl)-2-(cyclopropanecarboxamido)-6-methylpyrimidine-4-carboxamide]
CCC(=O)Nc1cc(C(=O)NCc2cnc(OCC(F)(F)F)c(CC)c2)cc(C)n1 [Example 714, N-((5-ethyl-6-(2,2,2-trifluoroethoxy)pyridin-3-yl)methyl)-2-methyl-6-propionamidoisonicotinamide]
CCc1cc(CNC(=O)c2ccnc(NC(=O)C(C)C)c2)cnc1OCC(F)(F)F [Example 712, N-((5-ethyl-6-(2,2,2-trifluoroethoxy)pyridin-3-yl)methyl)-2-isobutyramidoisonicotinamide]
C=C(C)C(=O)Nc1cc(C(=O)NC(C)c2ccc(OCC(F)(F)F)nc2)cc(C)n1 (single isomer, unassigned) [Example 571, 2-methacrylamido-6-methyl-N-(1-(6-(2,2,2-trifluoroethoxy)pyridin-3-yl)ethyl)isonicotinamide]
CCC(=O)Nc1cc(C(=O)NC(C)c2ccc(OCC(F)(F)C(F)(F)F)nc2)cc(C)n1 (single isomer, unassigned) [Example 692, 2-methyl-N-(1-(6-(2,2,3,3,3-pentafluoropropoxy)pyridin-3-yl)ethyl)-6-propionamidoisonicotinamide]
O=C(NCc1cc(C(F)(F)F)cc(C(F)(F)F)c1)c1ccnc(NC(=O)C2CC2)n1 [Example 736, N-(3,5-bis(trifluoromethyl)benzyl)-2-(cyclopropanecarboxamido)pyrimidine-4-carboxamide]
Cc1cc(C(C)NC(=O)c2ccc3cccc(O)c3n2)cnc1OCC(F)(F)F (single isomer, unassigned) [Example 535, 8-hydroxy-N-(1-(5-methyl-6-(2,2,2-trifluoroethoxy)pyridin-3-yl)ethyl)quinoline-2-carboxamide]
O=C(NCc1cc(C(F)(F)F)ccc1F)c1ccnc(NC(=O)C2CC2)c1 [Example 573, 2-(cyclopropanecarboxamido)-N-(2-fluoro-5-(trifluoromethyl)benzyl)isonicotinamide]
CCc1cc(CNC(=O)c2cc(C)nc(NC(C)=O)c2)cnc1OCC(F)(F)F [Example 713, 2-acetamido-N-((5-ethyl-6-(2,2,2-trifluoroethoxy)pyridin-3-yl)methyl)-6-methylisonicotinamide]
CCc1cc(CNC(=O)c2ccnc(NC(C)=O)c2)cnc1OCC(F)(F)F [Example 709, 2-acetamido-N-((5-ethyl-6-(2,2,2-trifluoroethoxy)pyridin-3-yl)methyl)isonicotinamide]
CCC(=O)Nc1cc(C(=O)NCc2ccc(OCC(F)(F)C(F)(F)F)nc2)ccn1 [Example 639, N-((6-(2,2,3,3,3-pentafluoropropoxy)pyridin-3-yl)methyl)-2-propionamidoisonicotinamide]
Cc1cc(C(=O)NCc2cccc(C(F)(F)F)c2)cc(NC(=O)CC2CC2)n1 [Example 961, 2-(2-cyclopropylacetamido)-6-methyl-N-(3-(trifluoromethyl)benzyl)isonicotinamide]
Cc1cc(C(=O)NCc2cc(C(F)(F)F)ccc2F)cc(NC(=O)C(C)C)n1 [Example 575, N-(2-fluoro-5-(trifluoromethyl)benzyl)-2-isobutyramido-6-methylisonicotinamide]
CC(C)C(=O)Nc1cc(C(=O)NCc2cccc(OC(F)(F)F)c2F)ccn1 [Example 750, N-(2-fluoro-3-(trifluoromethoxy)benzyl)-2-isobutyramidoisonicotinamide]
CCc1cc(CNC(=O)c2cc(C)nc(NC(=O)C(C)C)c2)cnc1OCC(F)(F)F [Example 715, N-((5-ethyl-6-(2,2,2-trifluoroethoxy)pyridin-3-yl)methyl)-2-isobutyramido-6-methylisonicotinamide]
